Assay results: paper PMC8869358, “High-Throughput Chemical Screening and Structure-Based Models to Predict hERG Inhibition” (Biology, 2022)
Structures can show the parent of a compound that is named as a salt.

What follows are compounds tested against hERG (Homo sapiens, UniProt Q12809) (assay: cell-based). Conditions: (-LOG10(IC50), µM).
hERG, sequence (Q12809 whole entry): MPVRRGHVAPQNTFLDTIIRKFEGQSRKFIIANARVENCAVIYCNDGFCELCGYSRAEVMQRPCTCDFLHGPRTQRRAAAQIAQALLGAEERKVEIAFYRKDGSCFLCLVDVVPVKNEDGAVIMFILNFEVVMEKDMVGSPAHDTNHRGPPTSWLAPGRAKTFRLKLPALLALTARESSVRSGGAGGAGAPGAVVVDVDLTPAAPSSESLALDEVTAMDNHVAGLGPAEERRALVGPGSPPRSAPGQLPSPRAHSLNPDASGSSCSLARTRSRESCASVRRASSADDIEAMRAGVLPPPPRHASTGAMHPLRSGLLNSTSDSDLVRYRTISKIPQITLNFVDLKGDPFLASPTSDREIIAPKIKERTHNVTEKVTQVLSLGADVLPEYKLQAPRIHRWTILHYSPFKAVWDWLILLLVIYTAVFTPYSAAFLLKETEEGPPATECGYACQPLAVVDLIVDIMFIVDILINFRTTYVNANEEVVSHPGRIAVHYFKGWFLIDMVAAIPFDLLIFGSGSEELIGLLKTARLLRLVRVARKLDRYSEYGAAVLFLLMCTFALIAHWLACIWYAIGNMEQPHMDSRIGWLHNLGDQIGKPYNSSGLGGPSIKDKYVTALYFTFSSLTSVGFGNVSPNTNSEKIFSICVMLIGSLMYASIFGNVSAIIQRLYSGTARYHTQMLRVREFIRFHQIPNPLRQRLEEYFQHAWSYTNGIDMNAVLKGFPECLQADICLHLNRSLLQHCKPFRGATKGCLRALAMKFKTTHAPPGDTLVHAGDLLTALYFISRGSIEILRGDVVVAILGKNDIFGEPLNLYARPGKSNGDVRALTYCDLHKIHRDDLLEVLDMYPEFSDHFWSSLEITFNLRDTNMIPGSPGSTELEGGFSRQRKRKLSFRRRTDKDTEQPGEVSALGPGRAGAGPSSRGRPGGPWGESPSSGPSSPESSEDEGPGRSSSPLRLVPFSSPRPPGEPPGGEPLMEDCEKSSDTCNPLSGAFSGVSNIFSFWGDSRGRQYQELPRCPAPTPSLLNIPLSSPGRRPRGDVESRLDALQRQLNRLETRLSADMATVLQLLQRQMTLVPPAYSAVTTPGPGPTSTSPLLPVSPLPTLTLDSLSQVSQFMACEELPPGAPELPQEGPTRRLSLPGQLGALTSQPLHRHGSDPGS

CCCOc1ccc(S(=O)(=O)N2CCN(CC)CC2)cc1-c1nc2c(CC)n(Cc3ccccn3)nc2c(=O)[nH]1 [UK-343664] and CCN(CC)CC1CCCCN1CC(=O)N1c2ccccc2C(=O)Nc2cccnc21 (centres unmarked) [AF-DX 116] are within 1.5-fold of each other in IC50: 21.9 µM for the first, 20.5 µM for the second.

Compared with O=C1CCCCCCCCCCCCCC1 [Cyclopentadecanone], CN1CCCN=C1COC(=O)C(O)(c1ccccc1)C1CCCCC1 (centres unmarked) [Oxyphencyclimine hydrochloride] is 4.8-fold lower in IC50: 24.5 µM for the first, 5.15 µM for the second. The second is the more potent here.

Compared with Clc1ccc(C(Cn2ccnc2)OCc2ccc(Sc3ccccc3)cc2)c(Cl)c1 (centres unmarked) [Fenticonazole], C=CCOC(Cn1ccnc1)c1ccc(Cl)cc1Cl (centres unmarked) [Imazalil] is 2.4-fold higher in IC50: 12.5 µM for the first, 29.8 µM for the second. The first is the more potent here.

First: O=C1[C@H]2CCCC[C@H]2C(=O)N1CCCCN1CCN(c2nsc3ccccc23)CC1 [Perospirone hydrochloride]
Second: O=C(c1ccc(F)cc1)C1CCN(CCn2c(=O)[nH]c3ccccc3c2=O)CC1 [Ketanserin]
The IC50 of the first is 3.2-fold higher: 8.49 µM for the first, 2.68 µM for the second. The second is the more potent here.

CCCCCCCCCCCCCCN(CCO)CCO [2,2'-(Tetradecylimino)diethanol] and CCCCCCCCCCCCCC[N+](C)(C)C [Myristyltrimethylammonium chloride] are within 1.5-fold of each other in IC50: 16.1 µM for the first, 15 µM for the second.

CC(C)(C)CC(C)(C)c1ccc(O)c(-n2nc3ccccc3n2)c1 [Octrizole] and Cc1cc2c(OCC(CNC(C)(C)C)OC(=O)c3ccccc3)cccc2[nH]1 (centres unmarked) [Bopindolol] are within 1.5-fold of each other in IC50: 14.5 µM for the first, 21.3 µM for the second.

Compared with Cn1c(-c2ccccc2)cc(-c2ccccc2)[n+]1C [Difenzoquat metilsulfate], c1ccc(-c2ccc(C(c3ccccc3)n3ccnc3)cc2)cc1 (centres unmarked) [Bifonazole] is 2.8-fold lower in IC50: 34.7 µM for the first, 12.5 µM for the second.

Going from CCCCN(CCCC)CC(O)c1cc(Cl)cc2c1-c1ccc(Cl)cc1/C2=C/c1ccc(Cl)cc1 (centres unmarked) [Lumefantrine] to CCCCCCC(C)Nc1ccc(Nc2ccccc2)cc1 (centres unmarked) [N-(1-Methylheptyl)-N'-phenyl-1,4-benzenediamine], the IC50 rises from 3.65 µM to 34.7 µM (9.5-fold).

Compared with CN(C)CCN(Cc1ccccc1)c1ccccn1 [Tripelennamine citrate], CCN(CC)CCSC(=O)C(c1ccccc1)c1ccccc1 [Thiphenamil] is 4.2-fold lower in IC50: 12.7 µM for the first, 3.01 µM for the second. The second is the more potent here.

First: O=C1c2ccccc2C(=O)N1CCc1noc(-c2ccc(CN3CCCCCC3)s2)n1 [PharmaGSID_48172]
Second: O=C1OC(CCN2CCCCC2)OC1(c1ccccc1)c1ccccc1 (centres unmarked) [Pipoxolan hydrochloride]
The IC50 of the first is 19-fold higher: 23.4 µM for the first, 1.25 µM for the second. The second is the more potent here.

ClC1=C(Cl)C2(Cl)C3C(Cl)C=CC3C1(Cl)C2(Cl)Cl (centres unmarked) [Heptachlor] and O=S1OC[C@@H]2[C@H](CO1)[C@]1(Cl)C(Cl)=C(Cl)[C@@]2(Cl)C1(Cl)Cl (some centres unmarked) [Endosulfan I] are within 1.5-fold of each other in IC50: 31 µM for the first, 43.6 µM for the second.

First: CN1CCCN(C(c2ccccc2)c2ccc(Cl)cc2)CC1 (centres unmarked) [Homochlorcyclizine]
Second: CN1CCN(C2Cc3ccccc3Sc3ccc(Cl)cc32)CC1 (centres unmarked) [Octoclothepine maleate]
The IC50 of the first is 2.2-fold higher: 1.83 µM for the first, 0.849 µM for the second.

Clc1cnc(Oc2ccc(Oc3ncc(Cl)cc3Cl)cc2)c(Cl)c1 [1,4-Bis[2-(3,5-dichloropyridyloxy)]benzene] and O=[N+]([O-])c1ccc(Oc2ccc(Cl)cc2Cl)cc1 [Nitrofen] are within 1.5-fold of each other in IC50: 17.4 µM for the first, 18.9 µM for the second.

ClC(Cl)=C(c1ccc(Cl)cc1)c1ccc(Cl)cc1 [p,p'-DDE] and ClC(Cl)=C(c1ccc(Cl)cc1)c1ccccc1Cl [o,p'-DDE] are within 1.5-fold of each other in IC50: 27.5 µM for the first, 21 µM for the second.

O=C(N[C@H]1N=C(c2ccccc2F)c2cccc3c2N(CC3)C1=O)c1cc2ccccc2[nH]1 [Pranazepide] and CN1C(=O)[C@@H](NC(=O)c2cc3ccccc3[nH]2)N=C(c2ccccc2)c2ccccc21 [Devazepide] are within 1.5-fold of each other in IC50: 7.86 µM for the first, 9.52 µM for the second.

CC(C)N(C(=O)SCC(Cl)=C(Cl)Cl)C(C)C [Tri-allate] and CN(C)C(=S)SSC(=S)N(C)C [Bis(dimethylaminothiocarbonyl) disulfide] are within 1.5-fold of each other in IC50: 20 µM for the first, 22.1 µM for the second.

Compared with CCc1cccc(N(C)C(N)=Nc2cccc3ccccc23)c1 [Aptiganel hydrochloride], CC(CN1c2ccccc2Sc2ccccc21)N(C)C (centres unmarked) [Promethazine] is 1.9-fold higher in IC50: 10.3 µM for the first, 19.7 µM for the second. The first is the more potent here.

First: CN1CCN(C2=Nc3ccccc3Sc3ccc(Cl)cc32)CC1 [Clothiapine]
Second: CN1CCN(CCC(=O)N2c3ccccc3Sc3ccc(C(F)(F)F)cc32)CC1 [Ftormetazine]
The IC50 of the first is 4.3-fold higher: 21.3 µM for the first, 4.96 µM for the second. The second is the more potent here.

First: CC[C@]12CCCN3CCc4c(n(c5ccccc45)C(=O)C1)[C@@H]32 [(-)-Eburnamonine]
Second: O=C1CC2(CCCC2)CC(=O)N1CCNCC1COc2ccccc2O1 (centres unmarked) [Binospirone mesylate]
The IC50 of the first is 10-fold lower: 1.9 µM for the first, 19 µM for the second.

First: CC(CN(C)C)CN1c2ccccc2CCc2ccccc21 (centres unmarked) [Trimipramine hydrogen maleate]
Second: CCOC(CN1CCN(CC(C)C(=O)c2ccccc2)CC1)c1ccccc1 (centres unmarked) [Eprazinone dihydrochloride]
The IC50 of the first is 1.6-fold higher: 14.5 µM for the first, 9.28 µM for the second. The second is the more potent here.

Compared with CCOC(=O)c1ccc([C@H]2CC[C@H](NC[C@H](O)COc3ccc(O)c(NS(C)(=O)=O)c3)CC2)cc1 [SAR 150640], CC(=O)O[C@@H]1CC2C3CCc4cc(OC(=O)c5ccccc5)ccc4C3CCC2(C)[C@H]1OC(C)=O (some centres unmarked) [Estriol benzoate diacetate] is 5.3-fold lower in IC50: 28.5 µM for the first, 5.35 µM for the second. The second is the more potent here.

First: CCN(CC)Cc1nccn1-c1ccc([N+](=O)[O-])cc1C(=O)c1ccccc1Cl [Nizofenone fumarate]
Second: O=C(c1ccccc1)c1cc(Cl)ccc1O [(5-Chloro-2-hydroxyphenyl)phenylmethanone]
The IC50 of the first is 6.9-fold lower: 6.74 µM for the first, 46.5 µM for the second. The first is the more potent here.

First: CCCCOCCOC(=O)c1ccccc1C(=O)OCCOCCCC [Bis(2-butoxyethyl) phthalate]
Second: CCCCC(CC)C(=O)OCCOCCOCCOCCOC(=O)C(CC)CCCC (centres unmarked) [Tetraethylene glycol di(2-ethylhexanoate)]
The IC50 of the first is 1.8-fold higher: 20.2 µM for the first, 11 µM for the second. The second is the more potent here.

First: Cc1nc2ccccn2c(=O)c1CCN1CCC(C(=O)c2ccc(F)cc2)CC1 [Pirenperone]
Second: O=C(CCCN1CCC(n2c(O)nc3ccccc32)CC1)c1ccc(F)cc1 [Benperidol]
The IC50 of the first is 3.8-fold higher: 6.74 µM for the first, 1.76 µM for the second. The second is the more potent here.

N#CSCSC#N [Methylene bis(thiocyanate)] and N#CCCC(Br)(C#N)CBr (centres unmarked) [1,2-Dibromo-2,4-dicyanobutane] are within 1.5-fold of each other in IC50: 50.1 µM for the first, 36.7 µM for the second.

CC(=O)C1=C(C)[C@@H]2C[C@@]3(C1)[C@H](C)CC[C@H]3C2(C)C [Acetylcedrene] and CC1C2CC(CC2C2CCCC(O)C2)C1(C)C (centres unmarked) [3-(5,5,6-Trimethylbicyclo[2.2.1]hept-2-yl)cyclohexanol] are within 1.5-fold of each other in IC50: 30.5 µM for the first, 22.7 µM for the second.

First: CCCC[P+](C)(CCCC)CCCC [Tributylmethylphosphonium methyl sulfate]
Second: CCCCC(CC)CN1CN(CC(CC)CCCC)CC(C)(N)C1 (centres unmarked) [Hexetidine]
The IC50 of the first is 12-fold higher: 35.1 µM for the first, 3.01 µM for the second. The second is the more potent here.

NCc1cccc(C2CCN(C(=O)c3ccc(C#Cc4ccccc4F)o3)CC2)c1 [AVE5638] and c1ccc(OCc2ccc(CCCN3CCOCC3)cc2)cc1 [Fomocaine] are within 1.5-fold of each other in IC50: 9.77 µM for the first, 10.7 µM for the second.

First: NC(=O)N(O)[C@@H]1C=C[C@H](Oc2cccc(Oc3ccc(F)cc3)c2)C1 [CJ-013790]
Second: Brc1ccc(Oc2ccc(Br)cc2)cc1 [4,4'-Dibromodiphenyl ether]
The IC50 of the first is 2.1-fold higher: 38.9 µM for the first, 18.8 µM for the second. The second is the more potent here.

Going from CN1[C@@H]2CC[C@H]1C[C@@H](NC(=O)n1c(=O)[nH]c3ccccc31)C2 [Itasetron] to CN1CCCC(CC2c3ccccc3Sc3ccccc32)C1 (centres unmarked) [Metixene hydrochloride], the IC50 falls from 21.3 µM to 4.77 µM (4.5-fold). The second is the more potent here.

CNC(=O)c1cc(Oc2ccc(NC(=O)Nc3ccc(Cl)c(C(F)(F)F)c3)cc2)ccn1 [Sorafenib tosylate] and Cc1ccc(-n2nc(C(C)(C)C)cc2NC(=O)Nc2ccc(OCCN3CCOCC3)c3ccccc23)cc1 [Doramapimod] are within 1.5-fold of each other in IC50: 22.1 µM for the first, 20.1 µM for the second.

Going from C/C=C\C/C=C/CCCCCCCCOC(C)=O [(E,Z)-Tetradeca-9,12-dienyl acetate] to CCCCCCCCCCCCCC[N+](C)(C)C [Tetradonium bromide], the IC50 falls from 36.7 µM to 18.3 µM (2-fold). The second is the more potent here.

CN(C)c1ccc(C(=N)c2ccc(N(C)C)cc2)cc1 [Auramine hydrochloride] and Oc1ccc(C(=C(Cl)Cl)c2ccc(O)cc2)cc1 [Bis(4-hydroxyphenyl)-2,2-dichloroethylene] are within 1.5-fold of each other in IC50: 44.8 µM for the first, 47 µM for the second.

CCCCCNC(=N)N/N=C/c1c[nH]c2ccc(OC)cc12 [Tegaserod] and C=CCOc1cc(Cl)ccc1C(=O)NCCN(CC)CC [Alloclamide] are within 1.5-fold of each other in IC50: 9.16 µM for the first, 8.82 µM for the second.

First: CCCCC(CC)CN1C(=O)C2C3C=CC(C3)C2C1=O (centres unmarked) [Octylbicycloheptenedicarboximide]
Second: CCCCCCCCCCCCCN1CC(C)OC(C)C1 (centres unmarked) [Tridemorph]
The IC50 of the first is 3-fold higher: 49 µM for the first, 16.4 µM for the second. The second is the more potent here.

CN(C)C(=O)C1(N2CCCCC2)CCN(CC[C@@]2(c3ccc(Cl)c(Cl)c3)CN(C(=O)c3ccccc3)CCO2)CC1 [SSR 241586 HCl] and CCc1c(C(=O)NN2CCCCC2)nn(-c2ccc(Cl)cc2Cl)c1-c1ccc(Br)cc1 [Surinabant] are within 1.5-fold of each other in IC50: 9.49 µM for the first, 6.92 µM for the second.

Compared with CCCCCCCCCCCCN1CCOCC1 [4-Dodecylmorpholine], CCCCCCCCCCCCCCCCCC[n+]1ccn(C)c1 [1-Methyl-3-octadecylimidazolium hexafluorophosphate] is 3.9-fold lower in IC50: 15.5 µM for the first, 4.02 µM for the second.

First: N#Cc1c(-c2ccc(Cl)cc2)[nH]c(C(F)(F)F)c1Br [Tralopyril]
Second: [H]/N=C(\N/C(=N/[H])Nc1ccc(Cl)cc1)NC(C)C [Proguanil hydrochloride]
The IC50 of the first is 1.8-fold lower: 11 µM for the first, 20.1 µM for the second. The first is the more potent here.

CCC(C)c1cc(C(C)(C)C)c(O)c(C(C)(C)C)c1 (centres unmarked) [4-(Butan-2-yl)-2,6-di-tert-butylphenol] and COc1ccc(CCN(C)CCCC(C#N)(c2cc(OC)c(OC)c(OC)c2)C(C)C)cc1OC (centres unmarked) [Gallopamil hydrochloride] are within 1.5-fold of each other in IC50: 8.54 µM for the first, 7.28 µM for the second.

Compared with COC(=O)[C@H]1[C@H]2C[C@@H]3c4[nH]c5cc(OC)ccc5c4CCN3C[C@H]2C[C@@H](OC(=O)COc2ccc(OC)cc2)[C@@H]1OC [Mefeserpine], C[C@]12CC[C@H]3[C@@H](CCC4=CC(=O)CC[C@@H]43)[C@@H]1CC[C@@H]2OC(=O)CCc1ccccc1 [Nandrolone phenpropionate] is 16-fold higher in IC50: 0.786 µM for the first, 12.5 µM for the second.

Going from C[C@]12CC[C@H]3[C@@H](CCC4=CC(=O)CC[C@@H]43)[C@@H]1CC[C@@H]2OC(=O)CCc1ccco1 [Nandrolone furylpropionate] to CCCN(CCOc1c(Cl)cc(Cl)cc1Cl)C(=O)n1ccnc1 [Prochloraz], the IC50 rises from 12 µM to 20.3 µM (1.7-fold). The first is the more potent here.

CC[N+](CC)(CC(=O)Nc1c(C)cccc1C)Cc1ccccc1 [Denatonium saccharide] showed an IC50 of 27.1 µM.
